# Experimental data published in ChEMBL document CHEMBL1147370, “Selligueain A, a novel highly sweet proanthocyanidin from the rhizomes of Selliguea feei” (J Nat Prod, 1993).
# Assays:
# Mus musculus [1] = test: Acute toxicity in Swiss-Webster mouse at 1 g/kg, po; assay type: organism-based; conditions: in vivo, 1000 mg/kg
# Mus musculus [2] = test: Acute toxicity in Swiss-Webster mouse at 2 g/kg, po; assay type: organism-based; conditions: in vivo, 2000 mg/kg
structure (smiles),measurement,setting,value
Oc1ccc([C@H]2Oc3c(c(O)cc4c3[C@H]3c5c(O)cc(O)cc5O[C@@](c5ccc(O)cc5)(O4)[C@@H]3O)[C@H](c3c(O)cc(O)c4c3O[C@H](c3ccc(O)cc3)[C@@H](O)C4)[C@H]2O)cc1 [SELLIGUEAIN A],Activity,Mus musculus [1],Non-toxic
same,Activity,Mus musculus [2],Non-toxic
